Reference: ChEMBL document CHEMBL3217496, “Inhibitors of Stat5 protein signalling” (Medchemcomm, 2012)
pIC50: −log10 of the molar value. One block for each compound: values may come before it.

Columns and labels:
cells = settings: Homo sapiens, EOL1
Description: Antiproliferative activity against human EOL-1 cells by CellTiterGlo assay

[1] = target: T1, Signal transducer and activator of transcription 5A (Homo sapiens, UniProt P42229); experiment: Inhibition of STAT5 (unknown origin)
T1 sequence (P42229 whole entry): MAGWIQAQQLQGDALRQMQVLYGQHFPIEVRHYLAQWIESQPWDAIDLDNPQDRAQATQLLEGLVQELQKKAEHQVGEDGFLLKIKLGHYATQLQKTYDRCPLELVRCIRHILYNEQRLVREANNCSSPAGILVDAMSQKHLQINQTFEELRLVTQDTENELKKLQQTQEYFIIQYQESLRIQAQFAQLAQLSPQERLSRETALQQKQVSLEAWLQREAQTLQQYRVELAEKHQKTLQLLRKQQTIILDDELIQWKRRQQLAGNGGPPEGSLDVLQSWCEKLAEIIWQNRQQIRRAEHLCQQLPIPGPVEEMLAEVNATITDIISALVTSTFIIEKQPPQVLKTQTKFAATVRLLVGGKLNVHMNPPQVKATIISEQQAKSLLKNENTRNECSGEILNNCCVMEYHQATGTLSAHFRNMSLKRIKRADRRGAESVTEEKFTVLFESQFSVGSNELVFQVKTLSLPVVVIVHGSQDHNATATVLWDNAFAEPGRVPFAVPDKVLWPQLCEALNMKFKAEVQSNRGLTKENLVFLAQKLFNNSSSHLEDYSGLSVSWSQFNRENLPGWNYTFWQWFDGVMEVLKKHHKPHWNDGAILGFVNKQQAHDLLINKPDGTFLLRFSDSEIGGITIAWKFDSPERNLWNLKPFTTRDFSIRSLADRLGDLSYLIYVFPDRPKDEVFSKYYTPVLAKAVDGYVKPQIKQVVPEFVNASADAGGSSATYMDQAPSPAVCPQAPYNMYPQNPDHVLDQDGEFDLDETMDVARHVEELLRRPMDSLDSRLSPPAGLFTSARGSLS

[2] = target: T2, Signal transducer and activator of transcription 1-alpha/beta (Homo sapiens, UniProt P42224); experiment: Inhibition of STAT1 (unknown origin)
T2 sequence (P42224 whole entry): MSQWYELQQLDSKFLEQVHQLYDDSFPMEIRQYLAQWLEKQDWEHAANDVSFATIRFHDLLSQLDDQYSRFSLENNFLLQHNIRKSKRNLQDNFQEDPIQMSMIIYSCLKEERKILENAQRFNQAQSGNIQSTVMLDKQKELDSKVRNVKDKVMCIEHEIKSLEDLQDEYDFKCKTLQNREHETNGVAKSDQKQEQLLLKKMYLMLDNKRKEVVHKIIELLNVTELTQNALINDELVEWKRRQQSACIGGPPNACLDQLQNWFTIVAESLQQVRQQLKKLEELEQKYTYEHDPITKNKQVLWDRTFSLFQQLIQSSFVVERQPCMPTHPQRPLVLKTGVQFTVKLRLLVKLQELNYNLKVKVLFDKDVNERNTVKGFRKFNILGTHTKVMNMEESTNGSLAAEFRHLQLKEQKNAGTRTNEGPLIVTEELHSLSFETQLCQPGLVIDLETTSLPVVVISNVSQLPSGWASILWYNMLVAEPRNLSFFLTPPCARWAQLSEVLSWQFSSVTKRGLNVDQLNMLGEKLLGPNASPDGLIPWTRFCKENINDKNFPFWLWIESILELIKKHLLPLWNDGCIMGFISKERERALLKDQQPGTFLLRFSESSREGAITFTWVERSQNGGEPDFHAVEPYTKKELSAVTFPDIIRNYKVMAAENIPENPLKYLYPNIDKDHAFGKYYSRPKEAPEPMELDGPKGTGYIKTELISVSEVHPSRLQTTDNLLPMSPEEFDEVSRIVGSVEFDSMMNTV

[3] = target: Signal transducer and activator of transcription 3 (Homo sapiens, UniProt P40763); experiment: Inhibition of STAT3 (unknown origin)
BaF3 = experiment: Cytotoxicity against mouse BAF3 cells expressing JAK2 V617F mutant after 48 hrs by CellTiterGlo assay; type: functional, cell-based; settings: BaF3, 48 h
[4] = target: Tyrosine-protein kinase JAK2 (Mus musculus, UniProt Q62120, V617F); experiment: Inhibition of JAK2 V617F mutant in mouse BAF3 cells; type: cell-based
[5] = target: T1, Signal transducer and activator of transcription 5A; experiment: Inhibition of STAT5 DNA binding activity in human K562 cells after 24 hrs by electrophoretic mobility shift assay; type: cell-based

Tyrosine-protein kinase JAK2, sequence (Q62120 as listed by the source V617F): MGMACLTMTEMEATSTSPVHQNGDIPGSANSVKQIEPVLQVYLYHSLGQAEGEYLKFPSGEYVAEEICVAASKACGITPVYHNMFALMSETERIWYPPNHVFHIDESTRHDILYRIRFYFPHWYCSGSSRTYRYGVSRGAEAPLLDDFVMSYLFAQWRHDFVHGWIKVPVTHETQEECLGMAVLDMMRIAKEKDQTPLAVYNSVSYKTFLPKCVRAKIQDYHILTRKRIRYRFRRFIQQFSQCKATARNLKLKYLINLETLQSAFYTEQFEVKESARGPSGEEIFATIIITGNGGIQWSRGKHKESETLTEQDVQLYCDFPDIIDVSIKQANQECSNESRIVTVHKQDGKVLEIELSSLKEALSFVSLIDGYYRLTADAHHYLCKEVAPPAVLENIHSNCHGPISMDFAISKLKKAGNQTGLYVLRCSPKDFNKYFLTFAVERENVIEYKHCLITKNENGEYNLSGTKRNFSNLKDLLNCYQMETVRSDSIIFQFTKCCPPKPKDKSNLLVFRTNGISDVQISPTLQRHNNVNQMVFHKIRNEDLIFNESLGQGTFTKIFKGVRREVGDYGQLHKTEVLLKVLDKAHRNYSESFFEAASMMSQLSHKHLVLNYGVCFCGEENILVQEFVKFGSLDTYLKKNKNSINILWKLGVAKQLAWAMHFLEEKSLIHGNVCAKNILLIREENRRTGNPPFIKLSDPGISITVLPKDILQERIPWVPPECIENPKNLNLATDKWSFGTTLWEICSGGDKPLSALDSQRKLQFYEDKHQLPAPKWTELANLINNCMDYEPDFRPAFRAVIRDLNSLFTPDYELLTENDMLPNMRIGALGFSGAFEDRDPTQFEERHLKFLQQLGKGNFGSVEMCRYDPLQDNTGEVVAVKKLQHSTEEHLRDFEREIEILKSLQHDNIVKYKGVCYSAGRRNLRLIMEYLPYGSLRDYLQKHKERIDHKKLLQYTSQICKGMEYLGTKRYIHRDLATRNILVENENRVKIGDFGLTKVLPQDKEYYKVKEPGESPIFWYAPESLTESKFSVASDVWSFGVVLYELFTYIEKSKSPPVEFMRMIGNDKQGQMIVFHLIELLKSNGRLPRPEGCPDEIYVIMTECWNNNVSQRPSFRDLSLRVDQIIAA
Signal transducer and activator of transcription 3, sequence (P40763 whole entry): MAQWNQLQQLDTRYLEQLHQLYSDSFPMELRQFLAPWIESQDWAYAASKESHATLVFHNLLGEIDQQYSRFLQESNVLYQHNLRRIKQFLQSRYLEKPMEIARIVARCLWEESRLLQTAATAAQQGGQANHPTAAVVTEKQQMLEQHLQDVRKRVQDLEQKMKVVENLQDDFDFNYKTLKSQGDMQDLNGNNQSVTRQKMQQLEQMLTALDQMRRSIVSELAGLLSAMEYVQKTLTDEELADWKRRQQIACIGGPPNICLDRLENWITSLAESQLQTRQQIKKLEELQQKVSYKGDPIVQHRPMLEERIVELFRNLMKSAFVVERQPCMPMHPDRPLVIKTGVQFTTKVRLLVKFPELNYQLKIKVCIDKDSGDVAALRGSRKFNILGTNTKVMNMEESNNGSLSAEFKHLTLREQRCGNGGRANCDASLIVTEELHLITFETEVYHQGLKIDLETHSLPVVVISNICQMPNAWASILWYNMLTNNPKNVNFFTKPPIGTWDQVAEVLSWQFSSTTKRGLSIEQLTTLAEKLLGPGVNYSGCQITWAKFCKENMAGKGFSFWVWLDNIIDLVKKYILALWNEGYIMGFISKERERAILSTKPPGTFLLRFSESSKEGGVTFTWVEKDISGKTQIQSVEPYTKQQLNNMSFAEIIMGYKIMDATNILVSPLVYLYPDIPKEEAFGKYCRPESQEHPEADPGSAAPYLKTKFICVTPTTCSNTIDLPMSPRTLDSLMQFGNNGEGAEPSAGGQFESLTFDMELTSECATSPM

SMILES: O=C(N/N=C/c1coc2ccccc2c1=O)c1cccnc1
pIC50 [1]: 4.33 | pIC50 [2]: 3.89 | pIC50 [3]: 3.74

SMILES: N#CC[C@H](C1CCCC1)n1cc(-c2ncnc3[nH]ccc23)cn1 [RUXOLITINIB]
pIC50 (BaF3): 6.90

SMILES: Cc1cc(Nc2ncc3cc(-c4c(Cl)cccc4Cl)c(=O)n(C)c3n2)ccc1F
pIC50 [5]: 8.30

The remaining lines, values ahead:

pIC50 (cells): 8.64
SMILES: CNC(=O)c1cc(Oc2ccc(NC(=O)Nc3ccc(Cl)c(C(F)(F)F)c3)cc2)ccn1 [SORAFENIB]

pIC50 [4]: 5.82
SMILES: N#CCNC(=O)c1ccc(-c2ccnc(Nc3ccc(N4CCOCC4)cc3)n2)cc1 [MOMELOTINIB]
